Laboratory results as given in patent publication US20170355959A1, “METHODS FOR MOBILISING POPULATIONS OF STEM CELLS” (Imperial Innovations Limited, priority 2014, published 2017).
Like-named read-outs stand apart in the source and are kept apart here.

Experiments:
HSPCs [1] = assay: Mobilization of HSPCs into peripheral blood (CFU-HPC assay); assay type: in vivo, mice; conditions: for level of HSPC mobilization: 3 day pre-treatment with one agonist alone, beta 3 agonist and CXCR4 antagonist on day 4; for priming of HSPCs for mobilization: 4 day pre-treatment, CB1 and CB2 agonists in combination, even with FAAH inhibitor; for effect on HSPC mobilization induced by 4 day beta 3 adrenergic agonist and CXCR4 antagonist: inhibitor or antagonist given 60 minutes prior to BRL 37344, once daily for 4 days
Experimental: (§1) Mice were administered the β-adrenergic agonists isoproterenol (10 mg/kg i.p.), clenbuterol (5 mg/kg i.p.) and BRL 37344 (10 mg/kg i.p.), the cannabinoid receptor agonists ACEA (10 mg/kg i.p.) and GP1a (5 mg/kg i.p.), or vehicle either on 4 consecutive days or 2 hours prior to the cull. 1 hour after the last injection, mice were administered the CXCR4 antagonist AMD3100 (5 mg/kg i.p.) or vehicle. 1 hour later their blood was collected via cardiac puncture for enumeration of circulating CFU-HPCs and CFU-Fs. Mice were administered murine G-CSF (100 μg/kg i.p.) or vehicle on 4 consecutive days. On day 5, blood was collected via cardiac puncture for enumeration of circulating HSPCs.
(§2) Harvested peripheral blood or perfusate was red blood cell-lysed and 1×10^5 cells were added to tissue culture-treated petri dishes containing 1 ml of Methocult™ (M3434; StemCell Technologies) to select for CFU-HPCs. Cultures were incubated at 37° C. and quantified on day 12. Similarly, 1×10^6 bone marrow cells harvested by bone marrow flush of the hind limb femur were plated for CFU-HPCs.

CFU-Fs (MSPCs) = assay: Mobilization of MSPCs into peripheral blood (CFU-F assay); assay type: in vivo, mice; conditions: for priming of MSCs for mobilization: 4 day pre-treatment, CB1 and CB2 agonists in combination, even with FAAH inhibitor
total white blood cells = conditions: CXCR4 antagonist alone
Experimental: as §1

HPCs = assay: In situ perfusion of mouse hind limb, CFU-HPCs in perfusate; assay type: in vivo, mice
Experimental: (§3) Mice were administered BRL 37344 (10 mg/kg i.p.) or vehicle on 4 consecutive days. 1 hour after the last injection, the mice were anaesthetized. The femoral vein and artery were exposed and cannulated in situ immediately after the hind limb was isolated by occlusion of the surrounding arteries as previously described (Pitchford et al, 2009; Pitchford et al, 2010). Perfusion buffer was infused via the arterial cannula and removed from the venous cannula using a Minipuls Peristaltic Pump (Anachem). The hind limb was initially infused with AMD3100 (0.1 mM) or vehicle for 10 minutes using an infusion/withdrawal pump (Harvard Instruments) and was further perfused for 50 minutes with perfusion buffer (Pitchford et al, 2010). The perfusate was collected over 60 minutes and then centrifuged and resuspended in DMEM (Gibco) +20% fetal bovine serum for enumeration of CFU-HPCs and CFU-Fs.
as §2

CFU-Fs (MSCs) = assay: In situ perfusion of mouse hind limb, CFU-Fs in perfusate; assay type: in vivo, mice
Experimental: as §3
Harvested peripheral blood or perfusate was red blood cell-lysed and 1×10^6 cells were added to tissue culture-treated 6-well plates containing 3 ml of Mesencult™ (05502; StemCell Technologies) to select for CFU-Fs. Similarly, 1×10^6 bone marrow cells harvested by bone marrow flush of the hind limb femur were plated for CFU-Fs. Cultures were incubated at 37° C. and media was changed on day 7. Bone marrow-derived CFU-Fs were enumerated on day 13 and blood- and perfusate-derived CFU-Fs were enumerated on day 21. Blood derived-CFU-Fs were further expanded and assessed for mesenchymal lineage markers by flow cytometry and following CD45 depletion (flow cytometry sorting of CD45 negative for mesenchymal trilineage differentiation (Supplemental Experimental Procedures).

MSCs = conditions: G-CSF and/or the CXCR4 antagonist; cited from earlier work
HSPCs [2] = conditions: mice; cited from earlier work
HSPCs [3] = conditions: humans; cited from earlier work
free fatty acids = assay: Free fatty acid assay in blood plasma; assay type: in vivo, mice; conditions: pre-treatment 60 minutes prior to the b3 adrenergic agonist, 4 days
Experimental: as §1
Free fatty acid content in blood plasma was quantified using a serum/plasma fatty acid detection Kit (Zen Bio) and the assay was performed according to the manufacturers' instructions. Data are expressed as μM concentration of free fatty acids.

FFAs = conditions: infusion directly into the vasculature of the canine femur; cited from earlier work
CXCL12 = conditions: in vivo; cited from earlier work
[4] = 3 days CB1 and CB2 agonists in combination, beta 3 agonist on the fourth day prior to CXCR4 antagonist
[5] = AMD3100 alone, 5 mg/kg i.p., blood 1 hour later
[6] = vehicle pre-treated mice, hind limb infused with CXCR4 antagonist for 10 min
[7] = four day pretreatment, b3 adrenergic agonist in combination with FAAH inhibitor
[8] = acute treatment (2 h), alone or in combination with acute CXCR4 antagonist
[9] = pre-treated once daily for 4 days, then AMD3100, blood 1 hour later

For `CCCCC/C=C\C/C=C\C/C=C\C/C=C\CCCC(=O)NCCCl` [ACEA, Arachidonyl-2-chloroethylamide], the “level of HSPC mobilization” value (HSPCs [1]) was “significantly less than that achieved using these agonists in combination”, the HSPC mobilization (HSPCs [1]; [4]) was “stem cells were mobilized” and the “priming of HSPCs for mobilization” value (HSPCs [1]) was “not sufficient to prime MSCs or HSPCs for mobilization”. For the same molecule, the “priming of MSCs for mobilization” value (CFU-Fs (MSPCs)) was “not sufficient to prime MSCs or HSPCs for mobilization”, the CFU-F mobilization (CFU-Fs (MSPCs); mouse, in vivo) was “stem cells were mobilized” and the “level of CFU-F mobilization” value (CFU-Fs (MSPCs); mouse, in vivo) was “significantly less than that achieved using these agonists in combination”.

In the case of `Cc1c(C(=O)NN2CCCCC2)nn(-c2ccc(Cl)cc2Cl)c1-c1ccc(I)cc1` [AM251], the “effect on HSPC mobilization induced by 4 day beta 3 adrenergic agonist and CXCR4 antagonist” value (“effect on HSPC mobilization induced” below) (HSPCs [1]) is reported as “significantly suppressed”.

For `COc1ccc(C(=O)c2c(C)n(CCN3CCOCC3)c3cc(I)ccc23)cc1` [AM630], the “effect on HSPC mobilization induced” value (HSPCs [1]) was “significantly suppressed” and the “effect on CFU-F mobilization induced by 4 day beta 3 adrenergic agonist and CXCR4 antagonist” value (“effect on CFU-F mobilization induced” for short) (CFU-Fs (MSPCs); mouse, in vivo) was “significantly suppressed”.

In the case of `c1cc(CN2CCCNCCNCCCNCC2)ccc1CN1CCCNCCNCCCNCC1` [AMD3100], the “mobilization of HSPCs into the blood” value (HSPCs [1]; [5]) is reported as “stimulated mobilization of HSPCs into the blood”, the CFU-Fs in blood (CFU-Fs (MSPCs); [5]) is reported as “no colony forming units-fibroblasts (CFU-Fs; a measure of MSCs) were detectable” and the “mobilization of total white blood cells” value (total white blood cells) is reported as “significantly increased”. The “HPCs mobilized from the bone marrow” value (HPCs; [6]) was “HPCs but not MSCs were mobilized from the bone marrow”, the “MSCs mobilized from the bone marrow” value (CFU-Fs (MSCs); [6]) was “HPCs but not MSCs were mobilized from the bone marrow” and the “mobilisation of MSCs from the bone marrow into the blood” value (MSCs) was “not effective”. The “circulating numbers of HSPCs” value (HSPCs [2]) was “stimulates a rapid rise in circulating numbers of HSPCs” and the “circulating numbers of HSPCs” value (HSPCs [3]) was “stimulates a rapid rise in circulating numbers of HSPCs”.

With `CC(C)(C)NCC(O)c1cc(Cl)c(N)c(Cl)c1` (centres unmarked) [Clenbuterol] the HSPC mobilization (HSPCs [1]; once daily for 4 days, alone or in combination with the CXCR4 antagonist) was “did not stimulate HSPC or MSC mobilization” and the MSC mobilization (CFU-Fs (MSPCs); mouse, in vivo) was “did not stimulate HSPC or MSC mobilization”.

For `Cc1ccc2c(c1)Cc1c(C(=O)NN3CCCCC3)nn(-c3ccc(Cl)cc3Cl)c1-2` [GP1a, N-(Piperidin-1-yl)-1-(2,4-dichlorophenyl)-1,4-dihydro-6-methylindeno[1,2-c]pyrazole-3-carboxamide], the “level of HSPC mobilization” value (HSPCs [1]) was “significantly less than that achieved using these agonists in combination”, the HSPC mobilization (HSPCs [1]; [4]) was “stem cells were mobilized” and the “priming of HSPCs for mobilization” value (HSPCs [1]) was “not sufficient to prime MSCs or HSPCs for mobilization”. For the same molecule, the “priming of MSCs for mobilization” value (CFU-Fs (MSPCs)) was “not sufficient to prime MSCs or HSPCs for mobilization”, the CFU-F mobilization (CFU-Fs (MSPCs); mouse, in vivo) was “stem cells were mobilized” and the “level of CFU-F mobilization” value (CFU-Fs (MSPCs); mouse, in vivo) was “significantly less than that achieved using these agonists in combination”.

In the case of `COc1ccc2cc([C@H](C)C(=O)O)ccc2c1` [Naproxen], the “effect on HSPC mobilization induced” value (HSPCs [1]) is reported as “significant increase in the mobilization of both HSPCs or CFU-Fs”.

With `CCCCCCCCCCC[C@@H](C[C@@H]1OC(=O)[C@H]1CCCCCC)OC(=O)[C@H](CC(C)C)NC=O` [Orlistat] the “effect on HSPC mobilization induced” value (HSPCs [1]) was “completely abrogated”, the “effect on CFU-F mobilization induced” value (CFU-Fs (MSPCs); inhibitor or antagonist given 60 minutes prior to BRL 37344, once daily for 4 days) was “completely abrogated” and the “effect on the b3 adrenergic agonist induced increase of FFA levels in plasma” value (free fatty acids) was “attenuated”.

With `NC(=O)c1cccc(-c2cccc(OC(=O)NC3CCCCC3)c2)c1` [URB597] the “effect on HSPC mobilization induced” value (HSPCs [1]) was “significantly enhanced”, the “effect on CFU-F mobilization induced” value (CFU-Fs (MSPCs); mouse, in vivo) was “significantly enhanced” and the “HPC egress from the bone marrow in response to infusion of the CXCR4 antagonist” value (HPCs; [7]) was “significantly enhanced both HPC and MSC egress from the bone marrow”. For the same molecule, the “MSC egress from the bone marrow in response to infusion of the CXCR4 antagonist” value (CFU-Fs (MSCs); [7]) was “significantly enhanced both HPC and MSC egress from the bone marrow”.

In the case of `CC(C)NCC(O)c1ccc(O)c(O)c1` (centres unmarked) [isoproterenol], the “circulating numbers of HSPCs” value (HSPCs [1]; 4 day pre-treatment alone) is reported as “did not change circulating numbers of HSPCs or CFU-Fs”, the “mobilization of HSPCs” value (HSPCs [1]; [8]) is reported as “did not enhance the mobilization of HSPCs above AMD3100 alone” and the “circulating HSPC numbers” value (HSPCs [1]; [9]) is reported as “significantly elevated over treatment with the CXCR4 antagonist alone”. The “circulating numbers of CFU-Fs” value (CFU-Fs (MSPCs); 4 day pre-treatment alone) was “did not change circulating numbers of HSPCs or CFU-Fs”, the “CFU-Fs in the blood” value (CFU-Fs (MSPCs); [8]) was “did not result in detectable numbers of CFU-Fs in the blood” and the “circulating CFU-Fs” value (CFU-Fs (MSPCs); [9]) was “CFU-Fs were mobilized”. For the same molecule, the “release of FFAs into the femoral vein” value (FFAs) was “release of FFAs into the femoral vein”.

B1: G-CSF: cytokine, granulocyte colony stimulating factor; murine G-CSF (PeproTech) (protein, UniProt P09920 31-208, looked up)
Granulocyte …: VPLVTVSALPPSLPLPRSFLLKSLEQVRKIQASGSVLLEQLCATYKLCHPEELVLLGHSLGIPKASLSGCSSQALQQTQCLSQLHSGLCLYQGLLQALSGISPALAPTLDLLQLDVANFATTIWQQMENLGVAPTVQPTQSAMPAFTSAFQRRAGGVLAISYLQGFLETARLALHHLA
For B1, the “G-CSF-induced mobilization of haematopoietic progenitor cells” value (HSPCs [1]; in the presence or absence of AM251 or AM630, 4 consecutive days) is given as “Independent of Cannabinoid Receptor Signalling”, the “effect on β3-AR agonist/AMD3100 mobilisation of MSPCs” value (CFU-Fs (MSPCs); mouse, in vivo, ip) is given as “impairs” and the “levels of CXCL12 in the bone marrow” value (CXCL12) is given as “reducing levels of CXCL12 in the bone marrow”. For the same molecule, the “mobilisation of MSCs from the bone marrow into the blood” value (MSCs) was “not effective”.
